In paper PMC7349874, “High Content Screening Using New U2OS Reporter Cell Models Identifies Harmol Hydrochloride as a Selective and Competitive Antagonist of the Androgen Receptor” (Cells, 2020):
Counter-ions that a name gives are not always drawn.

How the values were obtained:
DU145 cells = experiment: Spheroid growth (CellTiter-Glo), DU145; type: cell-based, human; details: 7 days, AR negative cells
[1] = molecular target: T1, glucocorticoid receptor (GR) (Homo sapiens, UniProt P04150); experiment: Transactivation assay in HMLN GR cells; type: cell-based; details: 16 h, antagonism in the presence of 5 nM dexamethasone
T1 construct: expressed in transfected cells
T1 sequence (P04150 1-777): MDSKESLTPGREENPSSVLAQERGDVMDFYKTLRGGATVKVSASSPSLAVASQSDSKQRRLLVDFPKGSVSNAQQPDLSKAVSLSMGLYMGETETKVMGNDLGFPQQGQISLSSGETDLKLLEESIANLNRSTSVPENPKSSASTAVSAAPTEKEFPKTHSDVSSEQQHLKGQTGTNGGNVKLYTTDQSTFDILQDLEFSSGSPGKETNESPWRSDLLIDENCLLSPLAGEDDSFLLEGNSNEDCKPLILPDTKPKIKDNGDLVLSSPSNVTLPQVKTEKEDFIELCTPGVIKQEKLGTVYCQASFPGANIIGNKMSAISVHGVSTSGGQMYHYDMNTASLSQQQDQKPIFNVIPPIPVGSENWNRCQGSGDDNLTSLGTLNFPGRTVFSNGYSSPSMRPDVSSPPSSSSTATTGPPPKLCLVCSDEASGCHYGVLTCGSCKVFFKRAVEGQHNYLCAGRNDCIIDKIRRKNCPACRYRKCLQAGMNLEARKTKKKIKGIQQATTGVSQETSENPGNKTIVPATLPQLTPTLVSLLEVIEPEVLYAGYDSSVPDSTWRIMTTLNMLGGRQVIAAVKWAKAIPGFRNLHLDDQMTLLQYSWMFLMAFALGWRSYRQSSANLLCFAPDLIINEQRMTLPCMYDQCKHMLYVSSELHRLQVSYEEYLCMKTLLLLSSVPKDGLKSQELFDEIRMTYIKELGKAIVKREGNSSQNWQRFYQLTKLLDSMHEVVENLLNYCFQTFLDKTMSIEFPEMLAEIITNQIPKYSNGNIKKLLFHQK
Source text: (§1) HG5LN MR and HG5LN PXR luciferase reporter cell lines were obtained by stable expression of individual ligand binding domains fused to GAL4 DNA binding domain in HG5LN (HeLa GAL4REx5-luciferase) cells, as previously described. HELN PR cells were obtained by stably expressing PR with the ERα DNA binding domain in HELN (HeLa ERE-luciferase) cells and HMLN GR cells were obtained by stable co-transfection of HeLa cells with a plasmid encoding for a glucocorticoid responsive gene (MMTV-Luc-SV-Neo) and a glucocorticoid receptor expressing plasmid, as previously described.
(§2) Agonistic activities were evaluated in HMLN GR, HELN PR, HG5LN MR, and HG5LN PXR cells, using dexamethasone 100 nM, R5020 100 nM, aldosterone 100 nM, and SR12813 3 μM as a positive control, respectively. […] RU486 was used as a control antagonist for GR and PR, and spironolactone for MR.
(§3) HMLN glucocorticoid receptor (GR), HG5LN mineralocorticoid receptor (MR), HELN progesterone receptor (PR) and HG5LN PXR cells were used to evaluate the antagonistic effect of the tested compounds on (A) the glucocorticoid receptor (GR), (B) the mineralocorticoid receptor (MR), (C) the progesterone receptor (PR) and (D) the agonistic activity towards the pregnane X receptor (PXR). […]

[2] = molecular target: T2, progesterone receptor (PR) (Homo sapiens, UniProt P06401); experiment: Transactivation assay in HELN PR cells; type: cell-based; details: 16 h, antagonism in the presence of 1 nM R5020
T2 sequence (P06401 679-933 limits assumed): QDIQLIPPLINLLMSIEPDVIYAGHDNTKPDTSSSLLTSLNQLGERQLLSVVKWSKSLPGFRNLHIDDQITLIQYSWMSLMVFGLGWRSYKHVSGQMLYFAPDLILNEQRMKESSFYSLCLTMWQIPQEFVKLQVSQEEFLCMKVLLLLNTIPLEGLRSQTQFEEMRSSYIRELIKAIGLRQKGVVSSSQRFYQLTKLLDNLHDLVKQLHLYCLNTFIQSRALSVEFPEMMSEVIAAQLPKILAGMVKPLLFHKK
Source text: as §1, §2, §3

[3] = molecular target: T3, mineralocorticoid receptor (MR) (Homo sapiens, UniProt P08235); experiment: Transactivation assay in HG5LN MR cells; type: cell-based; details: 16 h, 1 nM aldosterone, highest concentrations used (>1 µM)
T3 construct: expressed in transfected cells
T3 sequence (P08235 726-964 limits assumed): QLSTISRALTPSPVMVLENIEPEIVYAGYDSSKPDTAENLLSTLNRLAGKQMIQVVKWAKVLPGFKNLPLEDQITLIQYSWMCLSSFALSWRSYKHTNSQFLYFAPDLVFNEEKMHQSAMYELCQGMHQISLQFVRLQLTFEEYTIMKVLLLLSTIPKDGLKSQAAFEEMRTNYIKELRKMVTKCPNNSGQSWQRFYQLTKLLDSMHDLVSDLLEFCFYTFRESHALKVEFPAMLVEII
Source text: as §1, §2, §3

[4] = molecular target: T4, pregnane X receptor (PXR) (Homo sapiens, UniProt O75469); details: 16 h
T4 sequence (O75469 146-433 limits assumed): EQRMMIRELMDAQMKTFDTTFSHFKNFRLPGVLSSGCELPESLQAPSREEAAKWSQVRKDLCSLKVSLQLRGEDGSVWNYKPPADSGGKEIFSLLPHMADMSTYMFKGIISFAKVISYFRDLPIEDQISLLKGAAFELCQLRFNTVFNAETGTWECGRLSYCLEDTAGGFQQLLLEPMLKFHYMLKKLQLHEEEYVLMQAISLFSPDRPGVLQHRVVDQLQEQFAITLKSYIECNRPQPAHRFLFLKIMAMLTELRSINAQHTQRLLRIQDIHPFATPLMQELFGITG
Source text: as §1, §2, §3

[5] = design: method as in PMID 19363158; details: cited from earlier work
AR = details: cited from earlier work
LNCaP cells = experiment: Spheroid growth (CellTiter-Glo), LNCaP; details: 7 days, 1 nM R1881
[6] = system: AR target genes TMPRSS2, FKBP5, PSA; experiment: RT-qPCR of AR target genes in VCaP cells; details: 3 µM, 24 h, 1 nM R1881
Experimental: LNCaP and VCaP cells were seeded in 6-well plates (10^6 and 2 × 10^6 cells per well, respectively) and, 48 h later, complete medium was replaced by charcoal-stripped medium with 5% FBS. Cells were then treated for 24 h with the tested compounds, and RNA extraction was performed using the Quick RNA Miniprep kit (Zymo-Research, Irvine, CA, USA), according to the manufacturer’s protocol. Reverse transcription was performed with 0.5 µg total RNA using the SuperScript III reverse transcriptase kit (ThermoFisher, Waltham, MA, USA), according to the manufacturer’s protocol, in a final volume of 20 µL. The levels of genes transcripts were measured by real time PCR using a LightCycler 480 system (Roche Life Science, Penzberg, Germany) in the presence of SYBRGreen (SYBR® Premix Ex Taq^tm) and the following primers: FKBP5, sense 5′-[sequence]-3′; antisense 5′-[sequence]-3′; PSA, sense 5′-[sequence]-3′; antisense 5′-[sequence]-3′; TMPRSS2, sense 5′-[sequence]-3′, antisense 5′-[sequence]-3′; GR, sense 5′-[sequence]-3′, antisense 5′-[sequence]-3′; HPRT, sense 5′-[sequence]-3′; antisense 5′-[sequence]-3′; GAPDH, sense 5′-[sequence]-3′; antisense 5′-[sequence]-3′. Expression levels were evaluated with the ΔΔCt method and were normalized to GAPDH. Results are expressed as mRNA expression, relative to control (untreated cells), and are the mean ± SEM of 3 independent experiments.

[7] = system: U2OS-ARE-Luc control cells; experiment: Luciferase activity in U2OS-ARE-Luc control cells; details: validation, up to 3 µM, 16 h

Cc1nccc2c1[nH]c1cc(O)ccc12 [harmol hydrochloride, Harmol hydrochloride monohydrate]
Growth of DU145 spheroids (DU145 cells): no effect | Activity towards GR [1]: did not show any significant activity | Activity towards PR [2]: did not show any significant activity | Antagonistic activity towards MR [3]: small antagonistic activity | Activity towards PXR (agonistic) [4]: did not show any significant activity | Metabolism when administered in mice [5]: rapidly metabolized | Concentration competing for ligand binding relative to the concentration necessary to fully inhibit AR activity (AR): 30- to 100 fold | Inhibition of AR activation in a chemical genomic screen (AR): weak inhibitor | Nature of AR inhibition reported earlier (AR): non-competitive inhibitor of AR | Growth of LNCaP spheroids (LNCaP cells): A similar effect was observed | Expression of the AR non-target gene HPRT [6]: unaffected | R1881-mediated expression of AR target genes TMPRSS2, FKBP5, PSA [6]: significant decrease | Effect on luciferase activity in control cells [7]: no effect
